Values after ≈ are worked out from the molar mass of the structure shown. Like-named read-outs stand apart in the source and are kept apart here.
Experiments:
[1] = test system: Enterococcus faecalis ATCC29212; assay: MIC, microdilution, E. faecalis; format: cell-based; conditions: Enterococcus faecalis, ATCC29212; Gram (+); Mueller-Hinton broth, 18-24 h, 36 °C; read-out: MIC Ef
[2] = test system: Staphylococcus aureus ATCC25923; assay: MIC, microdilution, S. aureus; format: cell-based; conditions: Staphylococcus aureus
[3] = test system: Escherichia coli ATCC 25922; assay: MIC, microdilution, E. coli; format: cell-based; conditions: Escherichia coli
[4] = test system: Pseudomonas aeruginosa ATCC27853; assay: MIC, microdilution, P. aeruginosa; format: cell-based; conditions: Pseudomonas aeruginosa, ATCC27853; Gram (-); Mueller-Hinton broth, 18-24 h, 36 °C; read-out: MIC Pa
[5] = test system: Yersinia pseudotuberculosis ATCC911; assay: microbe, parasite or virus in culture; format: cell-based; conditions: Yersinia pseudotuberculosis, ATCC911, read-out: MIC Yp
[6] = DPPH radical scavenging activity; conditions: 0.1 mM DPPH, 50 min dark, 517 nm
Bacillus cereus Roma709 = assay: MIC, microdilution, B. cereus; format: cell-based; conditions: Bacillus cereus
α-glucosidase = assay: α-Glucosidase inhibition; format: biochemical; conditions: PNPG, pH 6.8, 37 °C, 400 nm
Procedure: It was incubated at 37 °C for 15 min. Similarly, an enzyme-free blank was prepared. The reaction was stopped when sodium carbonate (50 μL, 0.2 M) was added.

butyrylcholinesterase = butyrylcholinesterase (Homo sapiens, UniProt P06276); assay: biochemical; conditions: Tris-HCl pH 8.0, 25 °C, 405 nm; read-out: BChE IC50 (converted)
[7] = Ferric reducing antioxidant power (FRAP) assay; conditions: Trolox equivalents; compounds 2 mg/mL, 30 °C 30 min, 595 nm
[8] = test system: Candida albicans ATCC60193; assay: MIC, microdilution, C. albicans; format: cell-based; conditions: Candida albicans, ATCC60193; fungus; YEPD broth, 48 h, 36 °C; read-out: MIC Ca
acetylcholinesterase = acetylcholinesterase (Homo sapiens, UniProt P22303); assay: biochemical; conditions: Tris-HCl pH 8.0, 25 °C, 405 nm; read-out: AChE IC50 (converted)
[9] = Copper ions reducing activity (CUPRAC); conditions: Trolox equivalents; 30 min dark, room temperature, 450 nm
[10] = test system: Mycobacterium smegmatis ATCC607; assay: MIC, microdilution, M. smegmatis; format: cell-based; conditions: for MIC: Mycolicibacterium smegmatis, ATCC607, 72 h
[11] = ATCC25923, Gram (+), Mueller-Hinton broth, 18-24 h, 36 °C, read-out: MIC Sa
[12] = ATCC25922, Gram (-), Mueller-Hinton broth, 18-24 h, 36 °C, read-out: MIC Ec
[13] = Tub., BHI broth, 36 °C, read-out: MIC Ms

Sequence of acetylcholinesterase (P22303 32-614, species assumed): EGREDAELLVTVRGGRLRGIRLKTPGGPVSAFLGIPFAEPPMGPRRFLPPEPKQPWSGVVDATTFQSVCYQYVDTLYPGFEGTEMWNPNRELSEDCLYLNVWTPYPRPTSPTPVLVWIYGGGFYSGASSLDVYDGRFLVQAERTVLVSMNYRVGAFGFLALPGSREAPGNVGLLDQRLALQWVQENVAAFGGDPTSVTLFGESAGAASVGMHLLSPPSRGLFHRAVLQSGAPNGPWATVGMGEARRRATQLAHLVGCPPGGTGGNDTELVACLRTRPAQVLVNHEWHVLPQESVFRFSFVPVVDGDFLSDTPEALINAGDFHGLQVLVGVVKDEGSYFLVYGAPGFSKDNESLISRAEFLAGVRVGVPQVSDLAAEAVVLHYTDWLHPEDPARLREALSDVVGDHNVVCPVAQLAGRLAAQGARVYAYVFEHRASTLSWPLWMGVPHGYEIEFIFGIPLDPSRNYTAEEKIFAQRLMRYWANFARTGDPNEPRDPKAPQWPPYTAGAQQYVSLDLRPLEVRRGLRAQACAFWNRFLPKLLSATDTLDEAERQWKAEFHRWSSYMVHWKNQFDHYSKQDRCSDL
Sequence of butyrylcholinesterase (P06276 29-602): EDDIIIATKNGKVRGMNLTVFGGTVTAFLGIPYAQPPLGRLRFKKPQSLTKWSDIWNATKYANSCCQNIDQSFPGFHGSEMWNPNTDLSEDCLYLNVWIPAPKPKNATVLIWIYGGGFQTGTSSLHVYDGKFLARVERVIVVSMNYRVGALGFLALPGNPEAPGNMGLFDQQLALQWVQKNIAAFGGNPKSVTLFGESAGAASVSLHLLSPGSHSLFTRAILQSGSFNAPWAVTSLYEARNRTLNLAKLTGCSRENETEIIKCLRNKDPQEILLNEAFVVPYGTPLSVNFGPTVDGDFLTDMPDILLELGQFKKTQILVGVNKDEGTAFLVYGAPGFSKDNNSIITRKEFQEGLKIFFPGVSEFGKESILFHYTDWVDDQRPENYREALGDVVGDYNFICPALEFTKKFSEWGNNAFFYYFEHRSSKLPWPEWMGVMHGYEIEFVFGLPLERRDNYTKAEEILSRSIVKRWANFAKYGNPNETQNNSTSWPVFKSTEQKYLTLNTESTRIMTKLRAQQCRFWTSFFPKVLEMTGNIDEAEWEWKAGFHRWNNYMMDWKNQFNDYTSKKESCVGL

Row | Compound | MIC [1] | MIC [2, 11] | MIC [3, 12] | MIC [4] | MIC [5] | DPPH radical scavenging capacity (SC50) [6] | MIC (Bacillus cereus Roma709; ROMA709, read-out: MIC Bc) | α-Glucosidase IC50 (α-glucosidase) | IC50 (butyrylcholinesterase) | FRAP, the iron reducing antioxidant power [7] | MIC [8] | IC50 (acetylcholinesterase) | CUPRAC, copper reducing antioxidant power [9] | MIC [10, 13] | MIC ([2]; ATCC25923, read-out: MIC Sa) | MIC ([3]; ATCC25922, read-out: MIC Ec) | MIC (Bacillus cereus Roma709; ROMA709, Gram (+), Mueller-Hinton broth, 18-24 h, 36 °C, read-out: MIC Bc) | MIC Ms ([10]; Tub., BHI broth, 72 h, 36 °C) | MIC ([10]; read-out: MIC Ms, Tub., BHI broth, 36 °C)
1 | CC1(C)S[C@@H]2[C@H](NC(=O)[C@H](N)c3ccccc3)C(=O)N2[C@H]1C(=O)O [Amp., Ampicillin, reference compound] | 10 mg/L (≈ 28.6 µM) | 35 mg/L (≈ 100 µM) | 10 mg/L (≈ 28.6 µM) | > 128 mg/L | 18 mg/L (≈ 51.5 µM) |  |  |  |  |  |  |  |  |  |  |  |  |  | 
2 | Cc1cc(C(C)(C)C)c(O)c(C(C)(C)C)c1 [BHT, di-t-butylhydroxytoluene, reference compound] |  |  |  |  |  | 6.47 ± 0.12 mg/mL |  |  |  |  |  |  |  |  |  |  |  |  | 
3 | O=C(c1cccc(O)c1)C(O)c1ccccc1 (stereo not shown) [Compound 1, 2-Hydroxy-1-(3-hydroxyphenyl)-2-phenylethanone] |  |  | 330 mg/L (≈ 1450 µM) |  | 1320 mg/L (≈ 5780 µM) | 15.21 ± 2.1 mg/mL | 1320 mg/L (≈ 5780 µM) | 58.16 mg/L | 1890 µM | 1238 ± 34.7 μg/mL trolox/gram DW | 330 mg/L (≈ 1450 µM) | > 4380 µM | 738.33 ± 12.5 μg/mL trolox/gram DW | 165 mg/L (≈ 723 µM) |  |  |  |  | 
4 | O=C(c1cc(O)cc(O)c1)C(O)c1cc(O)cc(O)c1 (stereo not shown) [Compound 7, 1,2-Bis(3,5-dihydroxyphenyl)-2-hydroxyethanone] | 141 mg/L (≈ 510 µM) |  |  | 283 mg/L (≈ 1020 µM) | 1140 mg/L (≈ 4110 µM) | 10.85 ± 0.7 mg/mL | 141 mg/L (≈ 510 µM) | >1000 mg/L | > 3620 µM | 1715 ± 96.8 μg/mL trolox/gram DW | 283 mg/L (≈ 1020 µM) | 443 µM | 95.00 ± 2.4 μg/mL trolox/gram DW | 70 mg/L (≈ 253 µM) | 283 mg/L (≈ 1020 µM) | 141 mg/L (≈ 510 µM) |  |  | 
5 | O=C(C(=O)c1cc(O)cc(O)c1)c1ccccc1 [Compound 10, 1-(3,5-Dihydroxyphenyl)-2-phenylethane-1,2-dione] |  | 65 mg/L (≈ 268 µM) | 17 mg/L (≈ 70.2 µM) | 32 mg/L (≈ 132 µM) | 65 mg/L (≈ 268 µM) | 52.10 ± 0.4 mg/mL |  | 100.08 mg/L | > 4130 µM | 1830 ± 44.8 μg/mL trolox/gram DW | 17 mg/L (≈ 70.2 µM) | 161 µM | 455.00 ± 10.1 μg/mL trolox/gram DW | 9 to 18 mg/L (≈ 37.2 to 74.3 µM) |  |  | 17 mg/L (≈ 70.2 µM) | 17 mg/L (≈ 70.2 µM) | 
6 | O=C(C(=O)c1cc(O)cc(O)c1)c1cc(O)cc(O)c1 [Compound 14, 1,2-Bis(3,5-dihydroxyphenyl)ethane-1,2-dione] | 51 mg/L (≈ 186 µM) |  |  | 51 mg/L (≈ 186 µM) | 102 mg/L (≈ 372 µM) | 7.38 ± 1.0 mg/mL | 102 mg/L (≈ 372 µM) | 87.10 mg/L | > 3650 µM | 1974 ± 76.9 μg/mL trolox/gram DW | 51 mg/L (≈ 186 µM) | 257 µM | 133.33 ± 10.9 μg/mL trolox/gram DW | 51 mg/L (≈ 186 µM) |  | 102 mg/L (≈ 372 µM) |  |  | 
7 | O=C(c1cccc(OC2O[C@H](CO)[C@@H](O)[C@H](O)[C@H]2O)c1)C(O)c1ccccc1 (stereo partly drawn) [Compound 15, 2-Hydroxy-1-(3-O-β -D-glucopyranosylphenyl)-2-phenylethanone] |  |  |  |  |  |  |  | >1000 mg/L | > 2560 µM | 2311.04 ± 31.21 μg/mL trolox/gram DW | 25 mg/L (≈ 64 µM) | 30.7 µM | 141.74 ±28.35 μg/mL trolox/gram DW |  |  |  |  |  | 
8 | O=C(c1ccc(OC2O[C@H](CO)[C@@H](O)[C@H](O)[C@H]2O)cc1)C(O)c1ccccc1 (stereo partly drawn) [Compound 16, 2-Hydroxy-1-(4-O-β -D-glucopyranosylphenyl)-2-phenylethanone] |  |  |  |  |  | 44.75 ± 3.04 mg/mL |  | >1000 mg/L | 484 µM | 1956.25 ± 48.13 μg/mL trolox/gram DW |  | 399 µM | 73.54 ± 17.36 μg/mL trolox/gram DW |  |  |  |  |  | 
9 | O=C(c1cc(OC2O[C@H](CO)[C@@H](O)[C@H](O)[C@H]2O)cc(OC2O[C@H](CO)[C@@H](O)[C@H](O)[C@H]2O)c1)C(O)c1ccccc1 (stereo partly drawn) [Compound 17, 2-Hydroxy-1-(3,5-Di-O-β -D-glucopyranosylphenyl)-2-phenylethanone] |  |  |  |  |  | 8.22 ± 1.08 mg/mL |  | 193.40 mg/L | > 1760 µM | 2647.92 ± 31.92 μg/mL trolox/gram DW |  | > 1760 µM | 287.40 ± 9.81 μg/mL trolox/gram DW |  |  |  |  |  | 
10 | O=C(c1ccc(OC2O[C@H](CO)[C@@H](O)[C@H](O)[C@H]2O)cc1)C(O)c1cccc(OC2O[C@H](CO)[C@@H](O)[C@H](O)[C@H]2O)c1 (stereo partly drawn) [Compound 19, 2-Hydroxy-1-(4-O-β -D-glucopyranosylphenyl)-2-(3-O-β -D-glucopyranosyl-phenyl)ethanone] |  |  |  |  |  | 8.86 ± 0.37 mg/mL |  | 124.94 mg/L | > 1760 µM | 2612.50 ± 37.04 μg/mL trolox/gram DW |  | 18.5 µM | 421.74 ± 24.39 μg/mL trolox/gram DW |  |  |  |  |  | 
11 | O=C(c1cc(OC2O[C@H](CO)[C@@H](O)[C@H](O)[C@H]2O)cc(OC2O[C@H](CO)[C@@H](O)[C@H](O)[C@H]2O)c1)C(O)c1cccc(OC2O[C@H](CO)[C@@H](O)[C@H](O)[C@H]2O)c1 (stereo partly drawn) [Compound 20, 2-Hydroxy-1-(3,5-di-O-β -D-glucopyranosylphenyl)-2-(3-O-β -D-glucopyranosylphenyl)ethanone] |  |  |  |  |  | 7.78 ± 0.12 mg/mL |  | 48.25 mg/L | 254 µM | 2918.75±36.14 μg/mL trolox/gram DW |  | > 1340 µM | 775.58±12.34 μg/mL trolox/gram DW |  |  |  |  |  | 
12 | O=C(C(=O)c1cc(OC2O[C@H](CO)[C@@H](O)[C@H](O)[C@H]2O)cc(OC2O[C@H](CO)[C@@H](O)[C@H](O)[C@H]2O)c1)c1ccccc1 (stereo partly drawn) [Compound 23, 1-(3,5-Di-O-β -D-glucopyranosylphenyl)-2-phenylethane-1,2-dione] |  |  |  |  |  | 17.74 ± 0.35 mg/mL |  | >1000 mg/L | > 1770 µM | 2267.50 ± 24.14 μg/mL trolox/gram DW |  | 124 µM | 273.67 ± 27.23 μg/mL trolox/gram DW |  |  |  |  |  | 
13 | O=C(C(=O)c1cccc(OC2O[C@H](CO)[C@@H](O)[C@H](O)[C@H]2O)c1)c1cccc(O)c1 (stereo partly drawn) [Compound 24, 1-(3-O-β -D-Glucopyranosylphenyl)-2-(3-hydroxyphenyl)ethane-1,2-dione] |  |  |  |  |  | 25.40 ± 0.19 mg/mL |  | 58.90 mg/L | 526 µM | 2401.25 ± 56.34 μg/mL trolox/gram DW |  | 697 µM | 251.46 ± 43.08 μg/mL trolox/gram DW |  |  |  |  |  | 15 mg/L (≈ 37.1 µM)
14 | OC(Cn1cncn1)(Cn1cncn1)c1ccc(F)cc1F [Flu., Fluconazole, reference compound] |  |  |  |  |  |  |  |  |  |  | < 8 mg/L |  |  |  |  |  |  |  | 
15 | [H]/N=C(/N)N[C@H]1[C@H](O)[C@@H](O)[C@H](O[C@@H]2O[C@@H](C)[C@](O)(C=O)[C@H]2O[C@@H]2O[C@@H](CO)[C@H](O)[C@@H](O)[C@@H]2NC)[C@@H](N/C(N)=N\[H])[C@@H]1O [Strep., Streptomycin, reference compound] |  |  |  |  |  |  |  |  |  |  |  |  |  | 4 mg/L (≈ 6.88 µM) |  |  |  |  | 
